# Measured values published in US20110236467A1, “METHOD FOR ERECTILE FUNCTION PO[…] PHARMACEUTICAL CO[…] TX2-6 OF THE SPIDER PHONEUTRIA NIGRIVENTER” (priority 2008, published 2011).
# “Also recorded” adds a separate entry of the source.
# System: nitric oxide synthase (NOS)
# Test: Blockage of nitric oxide synthase by L-NAME and Tx2-6 action on erectile function (ICP/MAP) in rats
# Type: in vivo, rat
# Protocol: The participation of nitric oxide, resulting from the toxin effect on erection, was tested by using a nonselective inhibitor of the nitric oxide synthase enzyme, L-NAME (L-N^G-nitro-arginine methyl ester), intracavernosally injected (200 mg/Kg) in normotensive rats treated with Tx2-6 (subcutaneously injected; 48 μg/Kg).
# Nitric oxide (NO) is generated from the amino acid L-arginine by means of the NOS enzyme action. This synthesis occurs in different parts of the organism, including the corpus cavernosum. In this experiment, an inhibitor nonspecific for NOS (L-NAME, 200 mg/Kg) was injected intracavemosally.
smiles,measurement,setting,value
"COC(=O)[C@@H](N)CCCNC(=N)N[N+](=O)[O-] [L-NAME, L-N^G-nitro-arginine methyl ester]",effect of L-NAME on rat erectile function (ICP/AMP ratio),"L-NAME 200 mg/Kg intracavernosal, submaximum stimulation",blocked rat erectile function; also recorded: significant blockage
same,effect of L-NAME on the potentiator effect of erection caused by the toxin (ICP/MAP relation),L-NAME with Tx2-6,completely blocked
